Test results taken from patent publication US11130756B2, “[1,2,4]Triazolo[4,3-A]pyridinyl substituted indole compounds” (BRISTOL-MYERS SQUIBB COMPANY, priority 2017, dated 2021).

Experiments:
Type in all cases: cell-based
[1] = target: T1, human TLR7 (Homo sapiens, UniProt Q9NYK1); assay: TLR7 inhibition reporter assay (HEK-Blue, SEAP); conditions: HEK-Blue cells overexpressing human TLR7, gardiquimod 7.5 μM, 22 hour incubation
T1 construct: host or cells: HEK-Blue cells
T1 sequence (Q9NYK1 27-1049): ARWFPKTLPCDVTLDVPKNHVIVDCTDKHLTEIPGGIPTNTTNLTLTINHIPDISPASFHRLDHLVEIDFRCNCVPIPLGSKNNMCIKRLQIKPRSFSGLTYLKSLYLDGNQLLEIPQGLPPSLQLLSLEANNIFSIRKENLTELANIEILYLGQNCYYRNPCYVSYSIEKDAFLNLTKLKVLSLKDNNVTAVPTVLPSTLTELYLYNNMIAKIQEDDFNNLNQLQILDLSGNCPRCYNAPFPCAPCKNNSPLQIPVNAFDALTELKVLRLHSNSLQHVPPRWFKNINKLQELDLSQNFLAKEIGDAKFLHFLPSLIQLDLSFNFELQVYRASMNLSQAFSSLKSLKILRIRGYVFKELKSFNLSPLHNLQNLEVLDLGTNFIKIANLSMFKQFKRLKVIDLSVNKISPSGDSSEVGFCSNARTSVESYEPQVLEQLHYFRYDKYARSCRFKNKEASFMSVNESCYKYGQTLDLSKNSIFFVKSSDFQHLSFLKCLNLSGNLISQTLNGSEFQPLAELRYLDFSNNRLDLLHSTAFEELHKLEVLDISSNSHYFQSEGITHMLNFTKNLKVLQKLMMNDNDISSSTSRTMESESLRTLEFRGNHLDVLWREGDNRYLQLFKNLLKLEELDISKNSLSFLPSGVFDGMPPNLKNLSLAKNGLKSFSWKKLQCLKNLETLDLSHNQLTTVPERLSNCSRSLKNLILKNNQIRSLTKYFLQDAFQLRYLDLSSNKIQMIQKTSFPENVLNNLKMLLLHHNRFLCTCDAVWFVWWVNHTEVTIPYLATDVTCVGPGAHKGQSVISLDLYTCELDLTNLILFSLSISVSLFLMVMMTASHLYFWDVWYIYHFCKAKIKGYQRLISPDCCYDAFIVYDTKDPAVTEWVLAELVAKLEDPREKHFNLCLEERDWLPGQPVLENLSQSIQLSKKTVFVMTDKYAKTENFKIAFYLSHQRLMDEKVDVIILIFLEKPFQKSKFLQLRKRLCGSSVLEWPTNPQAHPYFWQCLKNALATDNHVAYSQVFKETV
How it was run: (§1)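 Human TLR7/8/9 HEK-Blue reporter lines; dose range 0.05 nM–50 μM; 30 min RT preincubation; stimulus gardiquimod 7.5 μM / R848 15.9 μM / ODN2006 5 nM respectively; 22 h, 37 °C; SEAP detected colorimetrically.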

[2] = target: T2, human TLR8 (Homo sapiens, UniProt Q9NR97); assay: TLR8 inhibition reporter assay (HEK-Blue, SEAP); conditions: HEK-Blue cells overexpressing human TLR8, R848 15.9 μM, 22 hour incubation
T2 construct: host or cells: HEK-Blue cells
T2 sequence (Q9NR97 27-1041): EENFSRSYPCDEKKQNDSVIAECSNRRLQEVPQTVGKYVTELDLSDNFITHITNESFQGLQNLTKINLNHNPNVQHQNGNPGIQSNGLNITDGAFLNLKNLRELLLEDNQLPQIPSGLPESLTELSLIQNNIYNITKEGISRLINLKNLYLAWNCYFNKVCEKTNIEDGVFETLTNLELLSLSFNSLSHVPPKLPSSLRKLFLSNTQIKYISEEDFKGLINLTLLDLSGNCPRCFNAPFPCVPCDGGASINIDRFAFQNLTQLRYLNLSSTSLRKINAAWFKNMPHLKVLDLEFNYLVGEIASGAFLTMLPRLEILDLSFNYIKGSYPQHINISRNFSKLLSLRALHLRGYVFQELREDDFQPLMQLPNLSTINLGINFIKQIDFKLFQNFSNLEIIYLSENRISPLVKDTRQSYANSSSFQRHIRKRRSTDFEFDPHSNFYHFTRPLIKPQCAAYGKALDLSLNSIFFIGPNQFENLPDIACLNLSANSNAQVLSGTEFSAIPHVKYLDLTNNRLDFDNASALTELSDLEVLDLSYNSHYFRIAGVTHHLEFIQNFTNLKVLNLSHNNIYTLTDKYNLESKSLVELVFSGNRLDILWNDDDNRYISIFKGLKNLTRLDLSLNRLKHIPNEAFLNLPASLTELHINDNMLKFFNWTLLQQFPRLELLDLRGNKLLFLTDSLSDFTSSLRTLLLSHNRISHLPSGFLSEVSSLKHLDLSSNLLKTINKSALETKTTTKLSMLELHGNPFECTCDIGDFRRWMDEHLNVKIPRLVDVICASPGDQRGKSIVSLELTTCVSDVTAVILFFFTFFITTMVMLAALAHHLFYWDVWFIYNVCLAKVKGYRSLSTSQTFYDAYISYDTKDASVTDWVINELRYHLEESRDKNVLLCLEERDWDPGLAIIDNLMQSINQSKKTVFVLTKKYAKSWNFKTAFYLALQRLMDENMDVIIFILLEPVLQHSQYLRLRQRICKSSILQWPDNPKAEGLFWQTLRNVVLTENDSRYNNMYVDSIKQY
How it was run: as §1

[3] = target: T3, human TLR9 (Homo sapiens, UniProt Q9NR96); assay: TLR9 inhibition reporter assay (HEK-Blue, SEAP); conditions: HEK-Blue cells overexpressing human TLR9, ODN2006 5 nM, 22 hour incubation
T3 construct: host or cells: HEK-Blue cells
T3 sequence (Q9NR96 26-1032): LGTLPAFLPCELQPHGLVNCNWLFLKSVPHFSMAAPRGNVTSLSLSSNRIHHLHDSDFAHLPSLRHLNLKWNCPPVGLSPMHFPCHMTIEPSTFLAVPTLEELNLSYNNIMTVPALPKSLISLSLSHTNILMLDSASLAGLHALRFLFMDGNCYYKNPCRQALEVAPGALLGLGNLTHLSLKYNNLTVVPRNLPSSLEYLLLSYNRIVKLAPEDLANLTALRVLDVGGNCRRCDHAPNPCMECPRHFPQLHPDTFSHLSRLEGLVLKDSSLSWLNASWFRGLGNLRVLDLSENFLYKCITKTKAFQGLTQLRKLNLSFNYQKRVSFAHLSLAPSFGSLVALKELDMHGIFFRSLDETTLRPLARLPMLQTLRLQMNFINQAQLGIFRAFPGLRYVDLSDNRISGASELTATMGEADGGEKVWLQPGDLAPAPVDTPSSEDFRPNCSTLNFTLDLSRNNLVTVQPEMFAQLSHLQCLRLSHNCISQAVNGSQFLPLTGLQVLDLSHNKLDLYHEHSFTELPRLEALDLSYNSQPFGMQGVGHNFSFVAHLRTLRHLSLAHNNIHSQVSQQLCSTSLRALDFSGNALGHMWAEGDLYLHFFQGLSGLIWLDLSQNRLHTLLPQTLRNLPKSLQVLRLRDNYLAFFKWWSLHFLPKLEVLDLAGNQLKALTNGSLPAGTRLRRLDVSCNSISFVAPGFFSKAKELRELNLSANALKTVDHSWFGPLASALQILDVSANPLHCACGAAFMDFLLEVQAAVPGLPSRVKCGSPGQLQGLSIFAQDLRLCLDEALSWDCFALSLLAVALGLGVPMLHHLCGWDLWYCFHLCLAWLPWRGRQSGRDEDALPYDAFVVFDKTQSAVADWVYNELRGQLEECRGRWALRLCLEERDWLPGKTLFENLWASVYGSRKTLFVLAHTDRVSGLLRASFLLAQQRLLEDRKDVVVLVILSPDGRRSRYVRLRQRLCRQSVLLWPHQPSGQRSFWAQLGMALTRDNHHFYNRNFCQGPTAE
How it was run: as §1

Compound | IC50 [1] | IC50 [2] | IC50 [3]
COc1cc(-c2[nH]c3ccc(C4CCN(CC5(C)COC5)CC4)cc3c2C(C)C)cn2cnnc12 [Example 90, 6-(3-isopropyl-5-(1-((3-methyloxetan-3-yl)methyl)piperidin-4-yl)-1H-indol-2-yl)-8-methoxy-[1,2,4]triazolo[4,3-a]pyridine] | 17.3 nM | 245 nM | 1500 nM
Cc1ncc(CN2CCC(c3ccc4[nH]c(-c5cn6cnnc6c(C)c5C)c(C(C)C)c4c3)CC2)cn1 [Example 91, 6-(3-isopropyl-5-(1-((2-methylpyrimidin-5-yl)methyl)piperidin-4-yl)-1H-indol-2-yl)-7,8-dimethyl-[1,2,4]triazolo[4,3-a]pyridine] | 1.5 nM | 4.6 nM | 1810 nM
Cc1c(-c2[nH]c3ccc(C4CCN(C5CC(C)OC(C)C5)CC4)cc3c2C(C)C)cn2cnnc2c1C (stereo not drawn) [Example 92, 6-(5-(1-(2,6-dimethyltetrahydro-2H-pyran-4-yl)piperidin-4-yl)-3-isopropyl-1H-indol-2-yl)-7,8-dimethyl-[1,2,4]triazolo[4,3-a] pyridine] | 5.6 nM | 15.2 nM | 3270 nM
Cc1c(-c2[nH]c3ccc(C4CCN(C5CCOC5)CC4)cc3c2C(C)C)cn2cnnc2c1C (stereo not drawn) [Example 93, 6-(3-isopropyl-5-(1-(tetrahydrofuran-3-yl)piperidin-4-yl)-1H-indol-2-yl)-7,8-dimethyl-[1,2,4]triazolo[4,3-a)pyridine] | 1.6 nM | 4 nM | 2800 nM
COc1cc(-c2[nH]c3ccc(C4CCN(C5CCOC5)CC4)cc3c2C(C)C)cn2cnnc12 (stereo not drawn) [Example 94, 6-(3-isopropyl-5-(1-(tetrahydrofuran-3-yl)piperidin-4-yl)-1H-indol-2-yl)-8-methoxy-[1,2,4]triazolo[4,3-a]pyridine] | 0.6 nM | 11.9 nM | 914 nM
COc1cc(-c2[nH]c3ccc(C4CCN(C5CCC(F)(F)CC5)CC4)cc3c2C(C)C)cn2cnnc12 [Example 95, 6-(5-(1-(4,4-difluorocyclohexyl)piperidin-4-yl)-3-isopropyl-1H-indol-2-yl)-8-methoxy-[1,2,4] triazolo[4,3-a]pyridine] | 0.7 nM | 20.5 nM | 2080 nM
COc1cc(-c2[nH]c3ccc(C4CCN(C)CC4)cc3c2C(C)C)cn2cnnc12 [Example 96, 6-(3-isopropyl-5-(1-methylpiperidin-4-yl)-1H-indol-2-yl)-8-methoxy-[1,2,4]triazolo[4,3-a)pyridine] | 1.2 nM | 35.8 nM | 376 nM
COc1cc(-c2[nH]c3ccc(C4CCN(C(C)C)CC4)cc3c2C(C)C)cn2cnnc12 [Example 97, 6-(3-isopropyl-5-(1-isopropylpiperidin-4-yl)-1H-indol-2-yl)-8-methoxy-[1,2,4]triazolo[4,3-a]pyridine] | 2.3 nM | 56.1 nM | 768 nM
Cc1c(-c2[nH]c3ccc(C4CCN(C)CC4)cc3c2C(C)C)cn2cnnc2c1C [Example 98, 6-(3-isopropyl-5-(1-methylpiperidin-4-yl)-1H-indol-2-yl)-7,8-dimethyl-[1,2,4]triazolo[4,3-a]pyridine] | 1 nM | 12.1 nM | 1790 nM
Cc1c(-c2[nH]c3ccc(C4CCN(C(C)C)CC4)cc3c2C(C)C)cn2cnnc2c1C [Example 99, 6-(3-isopropyl-5-(1-isopropylpiperidin-4-yl)-1H-indol-2-yl)-7,8-dimethyl-[1,2,4]triazolo [4,3-a]pyridine] | 1.7 nM | 8.3 nM | 2220 nM
Cc1c(-c2[nH]c3ccc(C4CCN(C5CC(C)(C)OC(C)(C)C5)CC4)cc3c2C(C)C)cn2cnnc2c1C [Example 100, 6-(3-isopropyl-5-(1-(2,2,6,6-tetramethyltetrahydro-2H-pyran-4-yl)piperidin-4-yl)-1H-indol-2-yl)-7,8-dimethyl-[1,2,4]triazolo[4,3-a]pyridine] | 13.7 nM | 31.6 nM | 4440 nM
Cc1c(-c2[nH]c3ccc(C4CCN(C5CCC(F)(F)CC5)CC4)cc3c2C(C)C)cn2cnnc2c1C [Example 101, 6-(5-(1-(4,4-difluorocyclohexyl)piperidin-4-yl)-3-isopropyl-1H-indol-2-yl)-7,8-dimethyl-[1,2,4] triazolo[4,3-a]pyridine] | 12.3 nM | 12.4 nM | 1440 nM
Cc1cc(-c2[nH]c3ccc(C4CCN(C(=O)CN(C)C)CC4)cc3c2C(C)C)cn2cnnc12 [Example 104, 2-(dimethylamino)-1-(4-(3-isopropyl-2-(8-methyl-[1,2,4]triazolo[4,3-a]pyridin-6-yl)-1H-indol-5-yl)piperidin-1-yl)ethanone] | 2.5 nM | 14.6 nM | 917 nM
CC(C)c1c(-c2ccc3nncn3c2)[nH]c2ccc(C3CCN(C(=O)CN(C)C)CC3)cc12 [Example 105, 1-(4-(2-([1,2,4]triazolo[4,3-a]pyridin-6-yl)-3-isopropyl-1H-indol-5-yl)piperidin-1-yl)-2-(dimethylamino)ethan-1-one] | 5.9 nM | 134 nM | 188 nM
